{"source": "paper PMC7906020", "about": "“Trp-Containing Antibacterial Peptides Impair Quorum Sensing and Biofilm Development in Multidrug-Resistant Pseudomonas aeruginosa and Exhibit Synergistic Effects With Antibiotics” (Frontiers in Microbiology, 2021)", "test_system": "OprD gene expression in MRPA0108", "experiment": "Real-time qPCR of porin gene OprD", "type": "cell-based, Pseudomonas aeruginosa", "settings": "peptide at its MIC (I1W 6.25 μM, L12W 25 μM); Supplementary Figure S2", "method": "Mid-logarithmic (mid-log) growth-phase MRPA0108 cells (1 × 10^8 CFU/ml) were incubated with the different concentrations of peptide at 37°C for 18 h. The bacterial cells were collected by centrifugation at 13,000×g and digested in lysis buffer containing 10 mg/ml lysozyme. Total RNA was isolated by using a TRIzol® Max^TM Kit (Invitrogen, Shanghai, China) according to the manufacturer’s instructions and subsequently reverse transcribed into cDNA using a Prime Script RT Master Mix Kit (Takara, Dalian, China). Real-time PCR was performed in an ABI QuantStudio^TM 5 sequence detection system (Applied Biosystems, United States) using 2 × SYBR Premix Ex Taq II (Solarbio Science and Technology Co., Ltd.). The PCR cycling conditions were as follows: 95°C for 30 s and 40 cycles of 5 s at 95°C, 30 s at 60°C, and 20 s at 72°C. The fold changes calculated according to the comparative cycle threshold (Ct) method were used for quantifying gene expression, normalizing to the expression of the housekeeping gene rpsL. PCR primers, including those for lasA, lasB, rhlA, rhlB, pelA, algD, psl, oprD, oprM, mexA, and mexB, were synthesized by Sangon Biotech (Shanghai, China) and are presented in Supplementary Table S2.", "note": "Peptide text beside a SMILES is read from it."}
{"smiles": "CC[C@H](C)[C@H](NC(=O)[C@H](CCCCN)NC(=O)[C@H](CO)NC(=O)[C@H](CC(C)C)NC(=O)[C@@H](NC(=O)[C@H](CCCCN)NC(=O)[C@H](CCCCN)NC(=O)[C@@H](N)Cc1c[nH]c2ccccc12)[C@@H](C)CC)C(=O)N[C@@H](CCCCN)C(=O)N[C@@H](CCCCN)C(=O)N[C@@H](CC(C)C)C(=O)N[C@@H](CC(C)C)C(=O)N[C@@H](CCCCN)C(N)=O", "note": "[I1W] (H-WKKILSKIKKLLK-NH2; N-terminus and C-terminus assumed)", "values": [{"measurement": "reduction of OprD gene expression", "value": 27, "unit": "%"}]}
